Measured values published in patent US20230365537A1, “POLO LIKE KINASE 4 INHIBITORS” (ORIC Pharmaceuticals, Inc., priority 2021, published 2023).
One block for each compound: values may come before it.

Key:
[1] = molecular target: human recombinant Aurora B (Homo sapiens (Human), UniProt Q96GD4); assay: Aurora B Kinase Biochemical Assay (ADP-Glo); conditions: ratio of Aurora B IC50 to PLK4 IC50 (selectivity)
Summary of the method: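 Recombinant human Aurora B (20 nM in pH 7.5 HEPES buffer with MgCl2, EGTA, DTT, Brij-35, BSA) preincubated with compound 15 min at RT. ADP formed quantified by ADP-Glo luminescence after ATP depletion (40 min) and detection (30 min). IC50 from four-parameter non-linear regression.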

human recombinant PLK4 = human recombinant PLK4 (Homo sapiens (Human), UniProt O00444); assay: PLK4 Biochemical Assay (ADP-Glo); conditions: 0.5 nM PLK4, 8.0 µM ATP, 4.7 µM MBP, 6 hours at RT
Chain of human recombinant PLK4 (O00444 whole entry): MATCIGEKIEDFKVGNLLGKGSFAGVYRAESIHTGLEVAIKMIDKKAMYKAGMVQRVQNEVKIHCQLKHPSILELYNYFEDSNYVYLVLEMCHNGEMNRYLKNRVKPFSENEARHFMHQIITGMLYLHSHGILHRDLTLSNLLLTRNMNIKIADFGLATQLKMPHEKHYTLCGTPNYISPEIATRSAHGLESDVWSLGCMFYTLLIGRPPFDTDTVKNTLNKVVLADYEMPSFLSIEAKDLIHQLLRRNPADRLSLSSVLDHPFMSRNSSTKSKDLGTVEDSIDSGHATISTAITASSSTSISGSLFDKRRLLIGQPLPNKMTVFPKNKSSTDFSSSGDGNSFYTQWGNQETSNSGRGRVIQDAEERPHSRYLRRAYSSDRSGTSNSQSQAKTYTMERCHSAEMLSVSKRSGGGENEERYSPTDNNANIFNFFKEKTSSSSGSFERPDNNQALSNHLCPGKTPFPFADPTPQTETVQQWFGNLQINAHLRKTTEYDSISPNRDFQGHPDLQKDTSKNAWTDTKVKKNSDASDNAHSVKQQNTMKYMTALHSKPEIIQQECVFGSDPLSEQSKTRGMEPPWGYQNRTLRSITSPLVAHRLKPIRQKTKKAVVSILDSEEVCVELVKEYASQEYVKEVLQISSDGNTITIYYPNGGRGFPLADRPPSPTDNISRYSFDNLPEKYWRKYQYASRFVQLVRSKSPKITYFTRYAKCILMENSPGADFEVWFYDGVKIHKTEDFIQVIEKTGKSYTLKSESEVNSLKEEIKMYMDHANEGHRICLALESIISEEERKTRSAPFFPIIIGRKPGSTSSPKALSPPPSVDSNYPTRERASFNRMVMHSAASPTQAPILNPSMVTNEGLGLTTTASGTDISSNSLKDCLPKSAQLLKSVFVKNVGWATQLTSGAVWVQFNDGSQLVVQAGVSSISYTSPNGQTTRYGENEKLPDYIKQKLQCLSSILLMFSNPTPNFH
Summary of the method: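 Recombinant human PLK4 (added at 1.0 nM) was preincubated 15 min at RT with compound in 50 mM HEPES pH 7.5, 10 mM MgCl2, 1 mM EGTA, 1 mM DTT, 0.01% Brij-35, 0.01% BSA. ADP formed was detected by ADP-Glo luminescence (40 min ATP depletion, 30 min detection). IC50 came from a four-parameter fit.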

CHP-134 cells = assay: CHP134 CellTiter-Glo (CTG) Assay; type: cell-based; conditions: Homo sapiens, CHP-134, 120 h, 5 days, viable cells by CellTiter-Glo
Summary of the method: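 CHP-134 cells seeded at 200 cells/well for 16 h, then given nine 1:3 serial dilutions in quadruplicate at 37° C, 5% CO2. Viable cells measured by CellTiter-Glo luminescence after 5 days; IC50 calculated from curves.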

[2] = molecular target: human recombinant Aurora A (Homo sapiens (Human), UniProt O14965); assay: Aurora A Kinase Biochemical Assay (ADP-Glo); conditions: ratio of Aurora A IC50 to PLK4 IC50 (selectivity)
Chain of human recombinant Aurora A (O14965 whole entry): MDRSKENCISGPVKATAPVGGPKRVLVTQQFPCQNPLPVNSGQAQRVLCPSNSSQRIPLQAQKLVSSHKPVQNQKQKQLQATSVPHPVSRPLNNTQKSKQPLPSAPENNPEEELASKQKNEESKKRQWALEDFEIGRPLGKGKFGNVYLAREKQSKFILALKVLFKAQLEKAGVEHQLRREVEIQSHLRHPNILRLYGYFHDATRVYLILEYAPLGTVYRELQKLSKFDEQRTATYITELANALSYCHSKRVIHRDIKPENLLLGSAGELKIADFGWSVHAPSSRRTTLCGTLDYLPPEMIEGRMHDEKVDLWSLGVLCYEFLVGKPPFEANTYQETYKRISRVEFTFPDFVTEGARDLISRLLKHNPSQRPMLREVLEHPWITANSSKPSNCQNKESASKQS

Chain of human recombinant Aurora B (Q96GD4 whole entry): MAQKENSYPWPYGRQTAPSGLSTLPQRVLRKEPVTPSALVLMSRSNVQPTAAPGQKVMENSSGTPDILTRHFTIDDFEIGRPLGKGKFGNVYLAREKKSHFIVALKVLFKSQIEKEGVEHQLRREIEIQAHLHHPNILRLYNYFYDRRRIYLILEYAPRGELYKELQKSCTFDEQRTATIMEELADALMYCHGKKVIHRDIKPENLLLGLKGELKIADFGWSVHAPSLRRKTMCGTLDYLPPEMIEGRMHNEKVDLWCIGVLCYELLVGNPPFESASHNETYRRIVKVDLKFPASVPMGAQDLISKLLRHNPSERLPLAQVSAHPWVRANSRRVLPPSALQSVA

SMILES: COc1ccc2c(c1)[C@]1(C[C@H]1c1ccc3c(Nc4nc(N5CC(O)C5)ncc4Cl)n[nH]c3c1)C(=O)N2 [Example 120, (1R,2S)-2-(3-{[5-chloro-2-(3-hydroxyazetidin-1-yl)pyrimidin-4-yl]amino}-1H-indazol-6-yl)-5′-methoxyspiro[cyclopropane-1,3′-indol]-2′(1′H)-one]
[Aurora B IC50 (nM)]/[PLK4 IC50 (nM)] [1]: 684.6657
IC50 (human recombinant PLK4): 3.81 nM
IC50 (CHP-134 cells): 10000 nM
[Aurora A IC50 (nM)]/[PLK4 IC50 (nM)] [2]: 444.0366

SMILES: COc1ccc2c(c1)[C@]1(C[C@H]1c1ccc3c(Nc4nc(C)ncc4OC)n[nH]c3c1F)C(=O)N2 [Example 123, (1R,2R)-2-{7-fluoro-3-[(5-methoxy-2-methylpyrimidin-4-yl)amino]-1H-indazol-6-yl}-5′-methoxyspiro[cyclopropane-1,3′-indol]-2′(1′H)-one]
[Aurora B IC50 (nM)]/[PLK4 IC50 (nM)] [1]: 84.1
IC50 (human recombinant PLK4): 4.8 nM
IC50 (CHP-134 cells): 2110 nM
[Aurora A IC50 (nM)]/[PLK4 IC50 (nM)] [2]: 667.5698

SMILES: COc1cnc(C)nc1Nc1n[nH]c2cc([C@@H]3C[C@@]34C(=O)Nc3ccc(C)cc34)ccc12 [Example 126, (1R,2S)-2-{3-[(5-methoxy-2-methylpyrimidin-4-yl)amino]-1H-indazol-6-yl}-5′-methylspiro[cyclopropane-1,3′-indol]-2′(1′H)-one]
[Aurora B IC50 (nM)]/[PLK4 IC50 (nM)] [1]: 92.0568
IC50 (human recombinant PLK4): 9.01 nM
IC50 (CHP-134 cells): 459 nM
[Aurora A IC50 (nM)]/[PLK4 IC50 (nM)] [2]: 66.2192

SMILES: COc1ccc2c(c1)[C@]1(C[C@H]1c1ccc3c(Nc4nc(C(C)C)ncc4OC(F)F)n[nH]c3c1)C(=O)N2 [Example 128, (1R,2S)-2-(3-{[5-(difluoromethoxy)-2-(propan-2-yl)pyrimidin-4-yl]amino}-1H-indazol-6-yl)-5′-methoxyspiro[cyclopropane-1,3′-indol]-2′(1′H)-one]
[Aurora B IC50 (nM)]/[PLK4 IC50 (nM)] [1]: 1337.0280
IC50 (human recombinant PLK4): 2.89 nM
IC50 (CHP-134 cells): 1490 nM
[Aurora A IC50 (nM)]/[PLK4 IC50 (nM)] [2]: 2750.2597

SMILES: COc1cnc(C)nc1Nc1n[nH]c2cc([C@@H]3C[C@@]34C(=O)Nc3ccc(F)cc34)ccc12 [Example 133, (1R,2S)-5′-fluoro-2-{3-[(5-methoxy-2-methylpyrimidin-4-yl)amino]-1H-indazol-6-yl}spiro[cyclopropane-1,3′-indol]-2′(1′H)-one]
[Aurora B IC50 (nM)]/[PLK4 IC50 (nM)] [1]: 45.1453
IC50 (human recombinant PLK4): 8.32 nM
IC50 (CHP-134 cells): 193 nM
[Aurora A IC50 (nM)]/[PLK4 IC50 (nM)] [2]: 43.3910

Now those with a lower IC50 (human recombinant PLK4), led by results:

[Aurora B IC50 (nM)]/[PLK4 IC50 (nM)] [1]: 230.8807
IC50 (human recombinant PLK4): 1.79 nM
[Aurora A IC50 (nM)]/[PLK4 IC50 (nM)] [2]: 875.6967
SMILES: COc1ccc2c(c1)[C@]1(C[C@H]1c1ccc3c(Nc4nc(C)ncc4OC(F)F)n[nH]c3c1)C(=O)N2 [Example 121, (1R,2S)-2-(3-{[5-(difluoromethoxy)-2-methylpyrimidin-4-yl]amino}-1H-indazol-6-yl)-5′-methoxyspiro[cyclopropane-1,3′-indol]-2′(1′H)-one]
IC50 (CHP-134 cells): 5320 nM

[Aurora B IC50 (nM)]/[PLK4 IC50 (nM)] [1]: 495.7388
IC50 (human recombinant PLK4): 0.833 nM
[Aurora A IC50 (nM)]/[PLK4 IC50 (nM)] [2]: 1323.9707
SMILES: COc1ccc2c(c1)[C@]1(C[C@H]1c1ccc3c(Nc4nc(C(C)C)ncc4OC)n[nH]c3c1)C(=O)N2 [Example 125, (1R,2S)-5′-methoxy-2-(3-{[5-methoxy-2-(propan-2-yl)pyrimidin-4-yl]amino}-1H-indazol-6-yl)spiro[cyclopropane-1,3′-indol]-2′(1′H)-one]
IC50 (CHP-134 cells): 160 nM

[Aurora B IC50 (nM)]/[PLK4 IC50 (nM)] [1]: 249.5114
IC50 (human recombinant PLK4): 2.15 nM
[Aurora A IC50 (nM)]/[PLK4 IC50 (nM)] [2]: 5290.8329
SMILES: COc1ccc2c(c1)[C@]1(C[C@H]1c1ccc3c(Nc4ncnc(N5CC6(COC6)C5)c4Cl)n[nH]c3c1)C(=O)N2 [Example 132, (1R,2S)-2-(3-{[5-chloro-6-(2-oxa-6-azaspiro[3.3]heptan-6-yl)pyrimidin-4-yl]amino}-1H-indazol-6-yl)-5′-methoxyspiro[cyclopropane-1,3′-indol]-2′(1′H)-one]
IC50 (CHP-134 cells): 618 nM
